Test results published in patent publication US11548888B2, “KRas G12C inhibitors” (Mirati Therapeutics, Inc., priority 2019, dated 2023).

target: T1, KRas G12C (Homo sapiens, UniProt P01116, G12C); test: Inhibition of KRas G12C-dependent cell growth: Phospho-ERK in NCI-H358 cells; assay type: cell-based; details: NCI-H358 cells expressing KRas G12C; Phospho-ERK (Thr202/Tyr204) normalized to GAPDH; 3 hours compound; 4 parameter fit
T1 construct: NCI-H358 cells (ATCC CRL-5807) express KRas G12C
Method: The cellular inhibition of KRAs G12C by exemplary compounds of the present invention was determined by measuring the amount of a downstream marker of KRas activity, phosphorylated ERK (“Phospho-ERK”).
NCI-H358 cells (ATCC CRL-5807) express KRas G12C and were grown in RPMI medium supplemented with 10% fetal bovine serum, penicillin/streptomycin and 10 mM HEPES. Cells were plated in poly-D-Lysine coated 96-well plates at a concentration of 50,000 cells/well and allowed to attach for 8-12 hours. Diluted compounds were then added at a final concentration of 0.5% DMSO. After 3 hours, the medium was removed, 150 μL of 4% formaldehyde was added and the plates were incubated for 20 minutes. The plates were washed with PBS, and permeabilized using 150 μL of ice cold 100% methanol for 10 minutes. Non-specific antibody binding to the plates was blocked using 100 μL Licor Blocking Buffer (Li-Cor Biotechnology, Lincoln Nebr.) for 1 hour at room temperature. Positive control samples and samples lacking cells were parallel processed with test samples as standards.
The amount Phospho-ERK was determined using an antibody specific for the phosphorylated form of ERK and compared to the amount of GAPDH. Primary antibodies used for detection were added as follows: Phospho-ERK (Cell Signaling cs9101) diluted 1:500 and GAPDH (Millipore MAB374) diluted 1:5000 in Licor block+0.05% Tween 20. The plates were incubated for 2 hours at room temperature. The plates were washed with PBS+0.05% Tween 20.
Secondary antibodies used to visualize primary antibodies were added as follows: Anti-rabbit-680 diluted 1:1000 and Anti-mouse-800 diluted 1:1000 in Licor Block+0.05% Tween 20 and incubated for 1 hour at room temperature. The plates were washed with PBS+0.05% Tween 20. A 100 μL aliquot of PBS was added to each well and the plates were read on a LICOR AERIUS plate reader.
The pERK(Thr202/Tyr204) signal was normalized with the GAPDH signal and percent of DMSO control values were calculated. IC50 values were generated using a 4 parameter fit of the dose response curve.

T1 sequence (P01116 1-188 isoform P01116-2 G12C): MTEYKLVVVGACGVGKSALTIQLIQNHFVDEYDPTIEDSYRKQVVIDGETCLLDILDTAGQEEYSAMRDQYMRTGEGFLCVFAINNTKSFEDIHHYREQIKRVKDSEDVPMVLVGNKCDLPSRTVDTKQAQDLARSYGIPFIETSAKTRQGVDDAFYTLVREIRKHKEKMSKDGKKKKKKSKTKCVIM

SMILES	IC50
C=C(F)C(=O)N1CCN(c2nc(OCC3CN(C)CC3(F)F)nc3c(F)c(-c4cccc5ccc(F)c(Cl)c45)ncc23)C[C@@H]1CC#N (single isomer, unassigned) [Example 179]	224 nM
C=C(F)C(=O)N1CCN(c2nc(OCC3CN(C)CC3(F)F)nc3c(F)c(-c4cccc5ccc(F)c(Cl)c45)ncc23)C[C@@H]1CC#N (single isomer, unassigned) [Example 180]	362 nM
C=CC(=O)N1CCN(c2ncnc3cc(-c4cc(O)cc5ccccc45)ncc23)CC1 [Example 1, 1-(4-(7-(3-hydroxynaphthalen-1-yl)pyrido[4,3-d]pyrimidin-4-yl)piperazin-1-yl)prop-2-en-1-one]	1920 nM
C=CC(=O)N1CCN(c2ncnc3cc(-c4cc(O)cc5ccccc45)ncc23)CC1C#N (centres unmarked) [Example 2, 1-acryloyl-4-(7-(3-hydroxynaphthalen-1-yl)pyrido[4,3-d]pyrimidin-4-yl)piperazine-2-carbonitrile]	325 nM
C=CC(=O)N1CCN(c2ncnc3cc(-c4c(O)cccc4F)ncc23)CC1 [Example 3, 1-(4-(7-(2-fluoro-6-hydroxyphenyl)pyrido[4,3-d]pyrimidin-4-yl)piperazin-1-yl)prop-2-en-1-one]	16000 nM
C=CC(=O)N1CCN(c2nc(OCCN3CCOCC3)nc3cc(-c4cc(O)cc5ccccc45)ncc23)CC1 [Example 4, 1-(4-(7-(3-hydroxynaphthalen-1-yl)-2-(2-morpholinoethoxy)pyrido[4,3-d]pyrimidin-4-yl)piperazin-1-yl)prop-2-en-1-one]	3430 nM
C=CC(=O)N1CCN(c2nc(OC[C@@H]3CCCN3C)nc3cc(-c4cc(O)cc5ccccc45)ncc23)CC1 [Example 6, 1-[4-[7-(3-hydroxy-1-naphthyl)-2-[[(2S)-1-methylpyrrolidin-2-yl]methoxy]pyrido[4,3-d]pyrimidin-4-yl]piperazin-1-yl]prop-2-en-1-one]	300 nM
C=C(F)C(=O)N1CCN(c2nc(OC[C@@H]3CCCN3C)nc3c(F)c(-c4cccc5ccccc45)ncc23)C[C@@H]1CC#N [Example 8, 2-[(2S)-4-[8-fluoro-2-[[(2S)-1-methylpyrrolidin-2-yl]methoxy]-7-(1-naphthyl)pyrido[4,3-d]pyrimidin-4-yl]-1-(2-fluoroprop-2-enoyl)piperazin-2-yl]acetonitrile]	132 nM
C=CC(=O)N1C2CCC1CN(c1nc(OC[C@@H]3CCCN3C)nc3c(F)c(-c4cc(O)cc5ccccc45)ncc13)C2 [Example 9, 1-[3-[8-fluoro-7-(3-hydroxy-1-naphthyl)-2-[[(2S)-1-methylpyrrolidin-2-yl]methoxy]pyrido[4,3-d]pyrimidin-4-yl]-3,8-diazabicyclo[3.2.1]octan-8-yl]prop-2-en-1-one]	142 nM

These reach a lower IC50. Values come first.

IC50	SMILES
45 nM	C=CC(=O)N1CCN(c2nc(OC[C@@H]3CCCN3C)nc3cc(-c4cccc5ccccc45)ncc23)C[C@@H]1CC#N [Example 5, 2-[(2S)-4-[2-[[(2S)-1-methylpyrrolidin-2-yl]methoxy]-7-(1-naphthyl)pyrido[4,3-d]pyrimidin-4-yl]-1-prop-2-enoyl-piperazin-2-yl]acetonitrile]
7 nM	C=CC(=O)N1CCN(c2nc(OC[C@@H]3CCCN3C)nc3c(F)c(-c4cccc5ccccc45)ncc23)C[C@@H]1CC#N [Example 7, 2-[(2S)-4-[8-fluoro-2-[[(2S)-1-methylpyrrolidin-2-yl]methoxy]-7-(1-naphthyl)pyrido[4,3-d]pyrimidin-4-yl]-1-prop-2-enoyl-piperazin-2-yl]acetonitrile]
2 nM	C=CC(=O)N1CCN(c2nc(OC[C@@H]3CCCN3C)nc3c(F)c(-c4cccc5cccc(C)c45)ncc23)C[C@@H]1CC#N [Example 10, 2-[(2S)-4-[8-fluoro-7-(8-methyl-1-naphthyl)-2-[[(2S)-1-methylpyrrolidin-2-yl]methoxy]pyrido[4,3-d]pyrimidin-4-yl]-1-prop-2-enoyl-piperazin-2-yl]acetonitrile]
84 nM	C=C(F)C(=O)N1CCN(c2nc(OC[C@@H]3CCCN3C)nc3c(F)c(-c4cccc5cccc(C)c45)ncc23)C[C@@H]1CC#N [Example 11, 2-[(2S)-4-[8-fluoro-7-(8-methyl-1-naphthyl)-2-[[(2S)-1-methylpyrrolidin-2-yl]methoxy]pyrido[4,3-d]pyrimidin-4-yl]-1-(2-fluoroprop-2-enoyl)piperazin-2-yl]acetonitrile]
31 nM	Cc1cccc2cccc(-c3ncc4c(N5CCN(C(=O)/C=C/CF)[C@@H](CC#N)C5)nc(OC[C@@H]5CCCN5C)nc4c3F)c12 [Example 12, 2-[(2S)-1-[(E)-4-fluorobut-2-enoyl]-4-[8-fluoro-7-(8-methyl-1-naphthyl)-2-[[(2S)-1-methylpyrrolidin-2-yl]methoxy]pyrido[4,3-d]pyrimidin-4-yl]piperazin-2-yl]acetonitrile]
127 nM	C=C(F)C(=O)N1CCN(c2nc(OC[C@@H]3CC(F)(F)CN3C)nc3c(F)c(-c4cccc5cccc(C)c45)ncc23)C[C@@H]1CC#N [Example 13, 2-((S)-4-(2-(((S)-4,4-difluoro-1-methylpyrrolidin-2-yl)methoxy)-8-fluoro-7-(8-methylnaphthalen-1-yl)pyrido[4,3-d]pyrimidin-4-yl)-1-(2-fluoroacryloyl)piperazin-2-yl)acetonitrile]
119 nM	C=C(F)C(=O)N1CCN(c2nc(OC[C@@H]3C[C@@H](F)CN3C)nc3c(F)c(-c4cccc5cccc(C)c45)ncc23)C[C@@H]1CC#N [Example 14, 2-[(2S)-4-[8-fluoro-2-[[(2S,4R)-4-fluoro-1-methyl-pyrrolidin-2-yl]methoxy]-7-(8-methyl-1-naphthyl)pyrido[4,3-d]pyrimidin-4-yl]-1-(2-fluoroprop-2-enoyl)piperazin-2-yl]acetonitrile]
50 nM	C=C(F)C(=O)N1CCN(c2nc(OC[C@@H]3C[C@@H](OC)CN3C)nc3c(F)c(-c4cccc5cccc(C)c45)ncc23)C[C@@H]1CC#N [Example 15, 2-[(2S)-4-[8-fluoro-2-[[(2S,4R)-4-methoxy-1-methyl-pyrrolidin-2-yl]methoxy]-7-(8-methyl-1-naphthyl)pyrido[4,3-d]pyrimidin-4-yl]-1-(2-fluoroprop-2-enoyl)piperazin-2-yl]acetonitrile]
118 nM	C=C(F)C(=O)N1CCN(c2nc(OC[C@H]3CCCN3C)nc3c(F)c(-c4cccc5cccc(C)c45)ncc23)C[C@@H]1CC#N [Example 16, 2-((S)-4-(8-fluoro-7-(8-methylnaphthalen-1-yl)-2-(((R)-1-methylpyrrolidin-2-yl)methoxy)pyrido[4,3-d]pyrimidin-4-yl)-1-(2-fluoroacryloyl)piperazin-2-yl)acetonitrile]
59 nM	Cc1cccc2cccc(-c3ncc4c(N5CCN(C(=O)/C=C/CF)[C@@H](CC#N)C5)nc(OC[C@@H]5C[C@@H](F)CN5C)nc4c3F)c12 [Example 17, 2-[(2S)-1-[(E)-4-fluorobut-2-enoyl]-4-[8-fluoro-2-[[(2S,4R)-4-fluoro-1-methyl-pyrrolidin-2-yl]methoxy]-7-(8-methyl-1-naphthyl)pyrido[4,3-d]pyrimidin-4-yl]piperazin-2-yl]acetonitrile]
50 nM	C=C(F)C(=O)N1CCN(c2nc(OC[C@@H]3CCCN3C)nc3c(F)c(-c4cccc5cccc(Cl)c45)ncc23)C[C@@H]1CC#N [Example 18, 2-((S)-4-(7-(8-chloronaphthalen-1-yl)-8-fluoro-2-(((S)-1-methylpyrrolidin-2-yl)methoxy)pyrido[4,3-d]pyrimidin-4-yl)-1-(2-fluoroacryloyl)piperazin-2-yl)acetonitrile]
2 nM	C=CC(=O)N1CCN(c2nc(OC[C@@H]3CCCN3C)nc3c(F)c(-c4cccc5cccc(Cl)c45)ncc23)C[C@@H]1CC#N [Example 19, 2-((S)-1-acryloyl-4-(7-(8-chloronaphthalen-1-yl)-8-fluoro-2-(((S)-1-methylpyrrolidin-2-yl)methoxy)pyrido[4,3-d]pyrimidin-4-yl)piperazin-2-yl)acetonitrile]
3 nM	C=CC(=O)N1CCN(c2nc(OC[C@@H]3CCCN3C)nc3c(F)c(-c4cncc5cccc(Cl)c45)ncc23)C[C@@H]1CC#N [Example 20, 2-[(2S)-4-[7-(5-chloro-4-isoquinolyl)-8-fluoro-2-[[(2S)-1-methylpyrrolidin-2-yl]methoxy]pyrido[4,3-d]pyrimidin-4-yl]-1-prop-2-enoyl-piperazin-2-yl]acetonitrile]
105 nM	C=C(F)C(=O)N1CCN(c2nc(OC[C@@H]3CC(F)(F)CN3C)nc3c(F)c(-c4cccc5cccc(Cl)c45)ncc23)C[C@@H]1CC#N [Example 21, 2-((S)-4-(7-(8-chloronaphthalen-1-yl)-2-(((S)-4,4-difluoro-1-methylpyrrolidin-2-yl)methoxy)-8-fluoropyrido[4,3-d]pyrimidin-4-yl)-1-(2-fluoroacryloyl)piperazin-2-yl)acetonitrile]
